Assay results taken from patent US20260256716A1, “COMPOSITIONS AND METHODS OF USE THEREOF” (Board of Supervisors of Louisiana State University and …, priority 2023, published 2026).

Key:
[1] = system: phosphorylated myosin light chain; experiment: Western blot of phosphorylated myosin light chain (MLC) in ARPE-19 cells under hyperglycemic conditions; type: cell-based, human; conditions: ARPE-19, DMEM High glucose 7% FCS overnight; 10 nM; western blot
Experimental: A Hallmark of Age-Associated Ocular and Neurodegenerative Disorders is Cytoskeletal Alteration and Induction of CONTRACTILE Stress Fiber Formation. Expression and activation via phosphorylation of Myosin Light Chain (MLC), is a biomarker of disease development. ARPE-19 cells and ARPE-19 cells specifying 5-HT2AR knockouts were plated in nutrient rich media (DMEM; 7% FCS) overnight. Cells were fixed, permeabilized, and stained phalloidin and α-phosphorylated-Myosin light chain. Cytoskeletal elements were then visualized by fluorescent microscopy to visualize actin fiber cytoskeletal structures (phalloidin, red) and contractile phosphorylated myosin light chain (green) via fluorescent microscopy. […] ARPE-19 cells were cultured under hyperglycemic conditions in nutrient rich media (DMEM High glucose; 7% FCS) overnight either in the absence or presence of 5-HT2A receptor agonists R-DOI and 2CiBu at 10 nm or 100 nM concentrations. The relative expression of the activated disease biomarker contractile phosphorylated myosin light chain was determined using specific antibodies and western blot analysis. 5-HT2A agonists. […] Therefore, 5-HT2A agonism at low concentrations have the potential to prevent and reverse deleterious cytoskeletal events that can be induced under hyperglycemic conditions, such as in diabetics.
This can be consistent with 2C-iBu being able to regulate IOP and that 5HT2A agonists prevented edema formation and disruption of corneal architecture in a model of herpetic keratitis.

ARPE cells = experiment: Mitochondrial morphology by fluorescent microscopy in ARPE cells expressing mitochondrial red/green fluorescent protein; type: cell-based, human; conditions: 100 nM, 50 nM or 10 nM; 48 hours post treatment
Experimental: Representative 5-HT2A Receptor Agonist, R-DOI, Increases Mitochondrial Biogenesis and Quality by Inducing Mitochondrial Fusion at low nM concentrations thereby reversing adverse processes that underlie development and progression of the Pathophysiology of Age-Associated Ocular and Neurodegenerative Diseases. ARPE cells transfected with plasmids that express either a red or green fluorescent protein biomarker that marks mitochondria were plated and treated with R-DOI @100 nM, 50 nM or 10 nM. 48 hours post treatment, mitochondrial morphology was evaluated by fluorescent microscopy.
• Fluorescent dyes limit researchers to study in a static manor due to fixation. We engineered a plasmid expressing mitochondrial localized AcGFP1/dsRed2. […]

mitofusin2 and TOMM20 = experiment: Western blot of mitofusin2 and TOMM20 in ARPE-19 cells; type: cell-based, human; conditions: all concentrations; 48 h post treatment; DMEM 7% FCS
Text: Representative 5-HT2A Receptor Agonist, R-DOI, Increases Mitochondrial Biogenesis and Quality by Inducing Mitochondrial Fusion at low nM concentrations thereby reversing adverse processes that underlie development and progression of the Pathophysiology of Age-Associated Ocular and Neurodegenerative Diseases. Consistent with the Maintenance of Functional Mitochondria and Mitochondrial Health, Serotonin 2A Receptor Agonism, Like with R-DOI, Increases Enzymatic BioMarkers of Mitochondrial Fusion (Mitofusin2) and Biogenesis (TOMM20). ARPE-19 cells were grown in DMEM 7% FCS containing the indicated concentrations of R-DOI. 48 h post treatment, cell samples were lysed and normalized prior to running western blots to evaluate mitofusin2 and TOMM20 protein expression. […] Mitofusion2 functions to regulate mitochondrial fusion. TOMM20 imports proteins through the outer membrane and is a marker of biogenesis and number.

ARPE-19 cells = experiment: SA-β-Gal cellular senescence in ARPE-19 cells in nutrient rich media (DMEM); type: cell-based, human; conditions: 10 nM in starvation media overnight, then DMEM 7% FCS 72 hours
Experimental: ARPE-19 cells in nutrient rich media (DMEM; 7% FCS) were seeded overnight prior to being replaced with starvation media (DMEM; 0.5% FCS) containing 10 nM R-DOI or 10 nM M100,907. After overnight incubation in starvation media with drug, cells were swapped to DMEM 7% FCS media for 72-hours. After the 72-hour incubation, cells were fixed and stained for SA-β-Gal for 6-hours. Cells nuclei were then stained with DAPI for total-cell enumeration. SA-β-Gal positive cells, and total cells per frame, were quantified by microscopy.

[2] = system: NAD synthesis and salvage; experiment: RT-PCR of NAD synthesis and salvage pathways / NAD levels; type: cell-based
SIRT1 and 3 = experiment: Western analysis of Sirtuin (SIRT) 1 and 3 expression; type: cell-based; conditions: varying concentrations, increased as concentrations decreased to nM
Text: Sirtuins utilize NAD to suppress pathophysiological processes of aging, including diabetic retinopathies, AMD and Neurodegeneration. Representative western analysis of Sirtuin (SIRT) 1 and 3 expression following cellular treatment with the representative 5-HT2A Receptor agonist R-DOI at varying concentrations.

NRF-2 = experiment: Western blot of NRF-2 expression in ARPE cells after H2O2 oxidative stress; type: cell-based, human; conditions: 1000 nM to 1 nM overnight, then H2O2, 24 hours, lower doses highest
Experimental: ARPE cells were plated and treated with 10-fold dilutions of R-DOI from 1000 nM to 1 nM. Following an overnight treatment, cells were incubated with hydrogen peroxide (H2O2) to mimic an oxidative stress induced disease event. 24 hours later, cell lysates were collected and protein levels were normalized among samples and run on a western blot for comparison of NRF-2 expression relative to a cellular protein loading control, b-actin. While doses increased protective NRF-2 expression, lower doses increased NRF-2 to the highest levels, accentuating the need for appropriate dose ranges in facilitating treatment effects.

A549 cells = experiment: Cell viability after cumene peroxide oxidative stress (Hoechst / propidium iodide); type: cell-based
Experimental: A549 cells were treated with the indicated concentrations of R-DOI (panel A) or 2C-iBu (panel B) and subsequently exposed to cumene peroxide to oxidatively stress cells. Cell viability was visualized by staining with Hoescht (Blue) to mark total cells (live plus dead) and propidium iodide (red) to mark dead cells.

Structure (SMILES): COc1cc(C[C@@H](C)N)c(OC)cc1I (single isomer, unassigned) [R-DOI, R enantiomer 2,5-Dimethoxy-4-iodoamphetamine]
- hyperglycemia induced phosphorylated MLC levels [1]: suppressed hyperglycemia induced phosphorylated MLC levels
- mitochondrial biomass and morphology (ARPE cells): increased mitochondrial biomass with a non-fragmented fused morphology
- Mitofusin 2 protein expression (mitofusin2 and TOMM20): increased expression of Mitofusin 2
- TOMM20 protein expression (mitochondrial biomass) (mitofusin2 and TOMM20): increased mitochondrial biomass (TOMM20)
- cellular senescence (SA-β-Gal positive cells) (ARPE-19 cells): Decreases Basal Levels of Cellular Senescence
- NAD levels / NAD synthesis and salvage pathways ([2]; higher doses): causes downregulation of these pathways and decreased NAD levels
- NAD levels / NAD synthesis and salvage pathways ([2]; low dose): increases protective NAD levels
- SIRT1 and 3 expression (SIRT1 and 3): induced
- SIRT1 and 3 expression (SIRT1 and 3; listed as (R)-DOI): upregulates SIRT1
- NRF-2 expression (NRF-2): Increases Expression of the master regulator of antioxidant gene expression NRF-2
- NRF-2 expression (NRF-2; listed as (R)-DOI): Upregulates Expression of NRF-2
- oxidative stress-induced cell death (A549 cells): protected cells from oxidative stress-induced cell death
